The values that follow come from ChEMBL document CHEMBL1136751 (J Med Chem, 2003).

Experiment [1] addresses T1, Peroxisome proliferator-activated receptor alpha (Homo sapiens, UniProt Q07869).
T1 sequence (Q07869 whole entry): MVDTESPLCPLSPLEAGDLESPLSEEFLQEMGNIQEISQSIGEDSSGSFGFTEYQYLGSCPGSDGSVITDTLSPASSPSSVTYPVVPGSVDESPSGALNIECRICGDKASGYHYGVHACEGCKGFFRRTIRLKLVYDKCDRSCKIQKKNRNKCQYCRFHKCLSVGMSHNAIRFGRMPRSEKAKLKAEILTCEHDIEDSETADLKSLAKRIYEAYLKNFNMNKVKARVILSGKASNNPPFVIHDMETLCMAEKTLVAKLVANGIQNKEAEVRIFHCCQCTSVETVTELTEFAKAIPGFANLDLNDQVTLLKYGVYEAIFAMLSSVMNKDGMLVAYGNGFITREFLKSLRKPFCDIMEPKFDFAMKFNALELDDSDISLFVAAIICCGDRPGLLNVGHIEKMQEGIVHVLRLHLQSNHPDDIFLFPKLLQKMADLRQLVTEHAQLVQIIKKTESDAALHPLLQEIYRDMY
As to the kind of experiment: Receptor binding affinity to human Peroxisome proliferator activated receptor alpha against [3H]-NNC 0061-4655 radioligand.

For experiment [2], the target named is T2, Peroxisome proliferator-activated receptor gamma (Homo sapiens, UniProt P37231).
T2 sequence (P37231 whole entry): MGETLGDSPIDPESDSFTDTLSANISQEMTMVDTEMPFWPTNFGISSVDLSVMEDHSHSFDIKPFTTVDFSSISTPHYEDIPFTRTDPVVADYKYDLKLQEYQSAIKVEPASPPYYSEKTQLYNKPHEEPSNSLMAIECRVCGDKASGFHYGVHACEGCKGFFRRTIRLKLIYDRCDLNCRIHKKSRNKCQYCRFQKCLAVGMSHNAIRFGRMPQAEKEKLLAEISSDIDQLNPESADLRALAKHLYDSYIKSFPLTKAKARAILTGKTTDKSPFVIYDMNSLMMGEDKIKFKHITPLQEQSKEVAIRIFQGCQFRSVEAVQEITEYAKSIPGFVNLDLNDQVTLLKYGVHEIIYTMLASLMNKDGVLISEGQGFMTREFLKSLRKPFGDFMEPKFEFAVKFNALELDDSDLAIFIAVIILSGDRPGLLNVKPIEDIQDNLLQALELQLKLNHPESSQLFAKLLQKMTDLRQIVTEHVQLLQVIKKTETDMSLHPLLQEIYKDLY
Description: Receptor binding affinity to human Peroxisome proliferator activated receptor gamma against [3H]ragalitazar radioligand

Experiment [3] has as its target T2, Peroxisome proliferator-activated receptor gamma. The source holds these as a separate data set.
Description: Agonistic activity for human Peroxisome proliferator activated receptor gamma
For experiment [4], the target named is T1, Peroxisome proliferator-activated receptor alpha. As to the kind of experiment: Agonistic activity for Peroxisome proliferator activated receptor alpha. Type of experiment: functional.

Molecules are shown by their SMILES. A value given as a limit tells only on which side of the number the result lay.

For the compound `CCO[C@H](Cc1ccc(OCCN2c3ccccc3Oc3ccccc32)cc1)C(=O)O`, the IC50 in experiment [1] and in experiment [2] was more than 10000 nM in each case.
On to `CCO[C@@H](Cc1ccc(OCCN2c3ccccc3Oc3ccccc32)cc1)C(=O)O` [RAGAGLITAZAR], for which the IC50 in experiment [1] turned out to be 980 nM. It took 600 nM to reach a half-maximal effect in experiment [3] (EC50).
For the compound `CCO[C@@H](Cc1ccc(OCCc2ccc(OS(C)(=O)=O)cc2)cc1)C(=O)O` [TESAGLITAZAR], the half-maximal inhibitory concentration (IC50) was 3800 nM in experiment [1] and 350 nM in experiment [2]. Also, the values for the EC50 in experiment [3] and in experiment [4] were 1300 nM and 1200 nM, respectively.
